How the values were obtained:
Assay type in all cases: biochemical
CDK5/p35 = CDK5/p35 (Homo sapiens, UniProt Q00535); experiment: CDK5/p35 kinase assay (Nanosyn, Caliper microfluidic); settings: 12-point dose-response, ATP at Km (20 μM), 3 hr
Method: (§1) Selected compounds disclosed herein were tested in kinase assays by Nanosyn (Santa Clara, Calif.) to determine their inhibitory effect on selected CDKs. The assays were performed using microfluidic kinase detection technology (Caliper Assay Platform). The compounds were tested in 12-point dose-response format in singlicate at Kmfor ATP. Phosphoacceptor substrate peptide concentration used was 1 μM for all assays and Staurosporine was used as the reference compound for all assays. Specifics of each assay are as described below: CDK5/p35: Enzyme concentration: 0.05 nM; ATP concentration: 20 μM; Incubation time: 3 hr.

CDK9/Cyclin T = CDK9/Cyclin T (Homo sapiens, UniProt P50750); experiment: CDK9/Cyclin T kinase assay (Nanosyn, Caliper microfluidic); settings: 12-point dose-response, ATP at Km (10 μM), 17 hr; Table 5
Method: as §1, with “[…]:” for “CDK5/p35:”, “5” for “0.05”, “10” for “20”, “17” for “3”

CDK5/p25 = CDK5/p25 (Homo sapiens, UniProt Q00535); experiment: CDK5/p25 kinase assay (Nanosyn, Caliper microfluidic); settings: 12-point dose-response, ATP at Km (20 μM), 3 hr
Method: as §1, with “CDK5/p25:” for “CDK5/p35:”, “0.1” for “0.05”

CDK2/Cyclin E = CDK2/Cyclin E (Homo sapiens, UniProt P24941); experiment: CDK2/Cyclin E kinase assay (Nanosyn, Caliper microfluidic); settings: 12-point dose-response, ATP at Km (100 μM), 3 hr
Method: as §1, with “CDK2/Cyclin E:” for “CDK5/p35:”, “0.15” for “0.05”, “100” for “20”

CDK4/Cyclin D1 = CDK4/Cyclin D1 (Homo sapiens, UniProt P11802); experiment: CDK4/Cyclin D1 kinase assay (Nanosyn, Caliper microfluidic); settings: 12-point dose-response, ATP at Km (200 μM), 3 hr; Table 4
Method: as §1, with “CDK4/Cyclin D1:” for “CDK5/p35:”, “1” for “0.05”, “200” for “20”

CDK7/Cyclin H = CDK7/Cyclin H (Homo sapiens, UniProt P50613); experiment: CDK7/Cyclin H kinase assay (Nanosyn, Caliper microfluidic); settings: 12-point dose-response, ATP at Km (50 μM), 17 hr
Method: as §1, with “CDK7/Cyclin H:” for “CDK5/p35:”, “10” for “0.05”, “50” for “20”, “17” for “3”

CDK2/Cyclin A = CDK2/Cyclin A (Homo sapiens, UniProt P24941); experiment: CDK2/Cyclin A kinase assay (Nanosyn, Caliper microfluidic); settings: 12-point dose-response, ATP at Km (50 μM), 3 hr
Method: as §1, with “CDK2/Cyclin A:” for “CDK5/p35:”, “0.1” for “0.05”, “50” for “20”

CDK6/Cyclin D3 = CDK6/Cyclin D3 (Homo sapiens, UniProt Q00534); experiment: CDK6/Cyclin D3 kinase assay (Nanosyn, Caliper microfluidic); settings: 12-point dose-response, ATP at Km (300 μM), 3 hr
Method: as §1, with “CDK6/Cyclin D3:” for “CDK5/p35:”, “2” for “0.05”, “300” for “20”

CDK3/Cyclin E = CDK3/Cyclin E (Homo sapiens, UniProt Q00526); experiment: CDK3/Cyclin E kinase assay (Nanosyn, Caliper microfluidic); settings: 12-point dose-response, ATP at Km (400 μM), 3 hr
Method: as §1, with “CDK3/Cyclin E:” for “CDK5/p35:”, “1” for “0.05”, “400” for “20”

CDK1/Cyclin B1 = CDK1/Cyclin B1 (Homo sapiens, UniProt P06493); experiment: CDK1/Cyclin B1 kinase assay (Nanosyn, Caliper microfluidic); settings: 12-point dose-response, ATP at Km (40 μM), 3 hr
Method: as §1, with “CDK1/Cyclin B1:” for “CDK5/p35:”, “0.08” for “0.05”, “40” for “20”

Sequence of CDK5/p25 (Q00535 whole entry): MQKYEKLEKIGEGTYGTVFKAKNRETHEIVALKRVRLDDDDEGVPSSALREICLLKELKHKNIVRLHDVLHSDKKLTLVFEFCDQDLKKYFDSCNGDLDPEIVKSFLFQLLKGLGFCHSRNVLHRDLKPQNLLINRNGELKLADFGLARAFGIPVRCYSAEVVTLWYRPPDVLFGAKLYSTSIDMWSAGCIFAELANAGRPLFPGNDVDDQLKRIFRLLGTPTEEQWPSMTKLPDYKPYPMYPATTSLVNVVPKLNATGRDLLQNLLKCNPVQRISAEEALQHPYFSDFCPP
Sequence of CDK5/p25 (Q15078 99-307 partner limits assumed): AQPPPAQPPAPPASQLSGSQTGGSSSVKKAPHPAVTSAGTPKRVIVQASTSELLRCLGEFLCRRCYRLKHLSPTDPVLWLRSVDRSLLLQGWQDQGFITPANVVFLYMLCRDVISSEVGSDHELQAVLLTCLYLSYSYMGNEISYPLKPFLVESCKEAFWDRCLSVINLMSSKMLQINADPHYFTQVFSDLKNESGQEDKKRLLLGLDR
Sequence of CDK5/p35 (Q00535 whole entry): as the sequence (Q00535 whole entry) above
Sequence of CDK5/p35 (Q15078 whole entry partner): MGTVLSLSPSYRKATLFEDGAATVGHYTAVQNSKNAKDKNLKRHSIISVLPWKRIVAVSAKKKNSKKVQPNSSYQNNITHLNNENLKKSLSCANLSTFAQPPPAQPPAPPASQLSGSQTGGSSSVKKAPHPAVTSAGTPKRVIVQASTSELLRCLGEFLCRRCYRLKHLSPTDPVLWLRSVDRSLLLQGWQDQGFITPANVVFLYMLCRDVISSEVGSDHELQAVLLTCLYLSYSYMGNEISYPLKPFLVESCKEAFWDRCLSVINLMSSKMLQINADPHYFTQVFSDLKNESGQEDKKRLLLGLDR
Sequence of CDK9/Cyclin T (P50750 whole entry): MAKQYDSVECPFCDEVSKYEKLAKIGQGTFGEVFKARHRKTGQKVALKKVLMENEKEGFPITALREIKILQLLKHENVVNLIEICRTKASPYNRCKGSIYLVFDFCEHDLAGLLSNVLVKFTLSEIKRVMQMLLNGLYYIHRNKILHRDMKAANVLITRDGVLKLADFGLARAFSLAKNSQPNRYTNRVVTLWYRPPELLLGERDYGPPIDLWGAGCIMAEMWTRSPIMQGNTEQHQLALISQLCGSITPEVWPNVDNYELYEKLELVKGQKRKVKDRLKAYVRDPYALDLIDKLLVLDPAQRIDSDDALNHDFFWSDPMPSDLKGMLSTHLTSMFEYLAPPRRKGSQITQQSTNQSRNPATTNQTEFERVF
Sequence of CDK9/Cyclin T (O60563 whole entry partner): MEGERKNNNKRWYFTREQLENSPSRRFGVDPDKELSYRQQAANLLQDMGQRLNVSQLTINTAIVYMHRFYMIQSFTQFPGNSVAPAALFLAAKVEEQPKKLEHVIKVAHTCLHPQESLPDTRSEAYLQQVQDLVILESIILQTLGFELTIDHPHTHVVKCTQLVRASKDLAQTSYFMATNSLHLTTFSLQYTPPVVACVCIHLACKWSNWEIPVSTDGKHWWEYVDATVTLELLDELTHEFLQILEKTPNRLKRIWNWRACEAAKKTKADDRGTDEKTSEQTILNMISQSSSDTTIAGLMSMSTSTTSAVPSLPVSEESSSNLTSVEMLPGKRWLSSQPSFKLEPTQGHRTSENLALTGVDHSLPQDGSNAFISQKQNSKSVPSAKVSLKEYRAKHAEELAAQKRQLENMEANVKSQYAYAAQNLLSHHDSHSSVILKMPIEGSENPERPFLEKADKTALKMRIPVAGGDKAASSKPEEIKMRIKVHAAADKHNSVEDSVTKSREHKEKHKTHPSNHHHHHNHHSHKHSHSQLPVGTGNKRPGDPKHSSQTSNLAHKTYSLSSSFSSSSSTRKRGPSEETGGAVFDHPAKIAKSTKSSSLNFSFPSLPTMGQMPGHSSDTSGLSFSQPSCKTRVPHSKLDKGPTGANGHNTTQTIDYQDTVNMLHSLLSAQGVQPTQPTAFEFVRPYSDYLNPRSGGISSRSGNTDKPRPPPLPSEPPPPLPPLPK
Sequence of CDK4/Cyclin D1 (P11802 whole entry): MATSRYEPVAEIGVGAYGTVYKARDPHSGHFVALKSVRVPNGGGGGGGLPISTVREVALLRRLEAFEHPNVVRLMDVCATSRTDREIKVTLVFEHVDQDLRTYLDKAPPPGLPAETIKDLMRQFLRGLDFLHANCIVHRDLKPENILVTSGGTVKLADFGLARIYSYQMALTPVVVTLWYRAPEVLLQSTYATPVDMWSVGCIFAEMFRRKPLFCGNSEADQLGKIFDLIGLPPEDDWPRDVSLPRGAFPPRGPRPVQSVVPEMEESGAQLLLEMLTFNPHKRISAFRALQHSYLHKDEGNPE
Sequence of CDK4/Cyclin D1 (P24385 whole entry partner): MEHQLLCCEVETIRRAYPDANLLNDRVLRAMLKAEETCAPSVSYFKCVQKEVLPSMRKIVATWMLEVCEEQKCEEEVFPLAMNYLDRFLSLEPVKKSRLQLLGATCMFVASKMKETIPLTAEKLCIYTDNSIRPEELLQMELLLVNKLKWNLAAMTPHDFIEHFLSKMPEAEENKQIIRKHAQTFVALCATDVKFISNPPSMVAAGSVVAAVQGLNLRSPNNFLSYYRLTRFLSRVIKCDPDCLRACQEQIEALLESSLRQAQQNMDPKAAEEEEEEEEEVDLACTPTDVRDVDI
Sequence of CDK1/Cyclin B1 (P06493 whole entry): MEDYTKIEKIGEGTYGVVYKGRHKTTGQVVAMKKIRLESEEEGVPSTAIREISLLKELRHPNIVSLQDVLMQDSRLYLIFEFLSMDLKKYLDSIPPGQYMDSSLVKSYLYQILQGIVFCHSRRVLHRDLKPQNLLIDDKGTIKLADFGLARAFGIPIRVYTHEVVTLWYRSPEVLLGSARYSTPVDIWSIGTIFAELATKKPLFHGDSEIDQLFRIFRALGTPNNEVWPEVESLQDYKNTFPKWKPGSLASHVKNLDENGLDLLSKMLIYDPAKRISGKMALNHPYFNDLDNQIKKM
Sequence of CDK1/Cyclin B1 (P14635 whole entry partner): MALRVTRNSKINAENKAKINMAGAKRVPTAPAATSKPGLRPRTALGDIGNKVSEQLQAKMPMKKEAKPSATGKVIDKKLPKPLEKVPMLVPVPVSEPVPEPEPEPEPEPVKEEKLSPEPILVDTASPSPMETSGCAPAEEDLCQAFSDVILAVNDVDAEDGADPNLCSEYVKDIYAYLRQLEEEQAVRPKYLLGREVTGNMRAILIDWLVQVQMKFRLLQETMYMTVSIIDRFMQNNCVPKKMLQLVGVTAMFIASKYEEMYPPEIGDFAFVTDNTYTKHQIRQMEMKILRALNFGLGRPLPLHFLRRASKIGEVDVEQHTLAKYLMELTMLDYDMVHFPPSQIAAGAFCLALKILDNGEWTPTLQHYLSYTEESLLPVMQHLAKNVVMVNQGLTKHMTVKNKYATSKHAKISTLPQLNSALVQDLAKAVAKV
Sequence of CDK6/Cyclin D3 (Q00534 whole entry): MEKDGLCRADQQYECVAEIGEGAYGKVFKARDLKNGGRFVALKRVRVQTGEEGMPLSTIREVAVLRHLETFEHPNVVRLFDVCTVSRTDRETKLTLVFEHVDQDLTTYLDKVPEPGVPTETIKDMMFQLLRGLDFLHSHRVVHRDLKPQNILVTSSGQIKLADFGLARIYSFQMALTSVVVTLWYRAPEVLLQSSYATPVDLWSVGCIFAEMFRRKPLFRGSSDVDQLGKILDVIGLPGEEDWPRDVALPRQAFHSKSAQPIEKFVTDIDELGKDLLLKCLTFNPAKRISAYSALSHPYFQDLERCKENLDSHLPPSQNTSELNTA
Sequence of CDK6/Cyclin D3 (P30281 whole entry partner): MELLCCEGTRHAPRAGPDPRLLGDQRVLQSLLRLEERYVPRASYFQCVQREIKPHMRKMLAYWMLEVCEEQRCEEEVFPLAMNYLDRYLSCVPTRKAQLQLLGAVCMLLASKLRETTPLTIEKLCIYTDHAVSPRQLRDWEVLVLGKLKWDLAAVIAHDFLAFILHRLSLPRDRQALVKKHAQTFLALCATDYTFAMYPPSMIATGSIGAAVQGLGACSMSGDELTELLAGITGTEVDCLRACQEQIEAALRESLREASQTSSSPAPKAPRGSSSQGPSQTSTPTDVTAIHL

Structure (SMILES) | IC50 (CDK5/p35) | IC50 (CDK9/Cyclin T) | IC50 (CDK5/p25) | IC50 (CDK2/Cyclin E) | IC50 (CDK4/Cyclin D1) | IC50 (CDK7/Cyclin H) | IC50 (CDK2/Cyclin A) | IC50 (CDK6/Cyclin D3) | IC50 (CDK3/Cyclin E) | IC50 (CDK1/Cyclin B1)
O=C1CC[C@H](Nc2ncc3cc4n(c3n2)C2(CCCCC2)CNC4=O)CN1 [Compound 24, (S)-2′-((6-oxopiperidin-3-yl)amino)-7′,8′-dihydro-6′H-spiro[cyclohexane-1,9′-pyrazino[1′,2′:1,5]pyrrolo[2,3-d]pyrimidin]-6′-one] | 330 nM | 25 nM | 260 nM | 240 nM | 250 nM | 470 nM | 220 nM | 1000 nM | 290 nM | 560 nM
O=C1NCC2(CCCCC2)n2c1cc1cnc(N[C@H]3CC[C@H](NCc4cccnc4)CC3)nc12 [Compound 21, 2′-(((1,4-trans)-4-((pyridin-3-ylmethyl)amino)cyclohexyl)amino)-7′,8′-dihydro-6′H-spiro[cyclohexane-1,9′-pyrazino[1′,2′:1,5]pyrrolo[2,3-d]pyrimidin]-6′-one] | 350 nM | 2.1 nM | 320 nM | 220 nM | 14 nM | 110 nM | 140 nM | 71 nM | 290 nM | 310 nM
C1=NCC2(CCCCC2)n2c1cc1cnc(N[C@H]3CCCNC3)nc12 [Compound 50, (S)-N-(piperidin-3-yl)-8′H-spiro[cyclohexane-1,9′-pyrazino[1′,2′:1,5]pyrrolo[2,3-d]pyrimidin]-2′-amine] | 180 nM | 23 nM | 190 nM | 190 nM | 310 nM | 42 nM | 280 nM | 1100 nM | 64 nM | 280 nM
O=C1NCC2(CCCCC2)n2c1cc1cnc(N[C@H]3CCCNC3)nc12 [Compound 47, (S)-2′-(piperidin-3-ylamino)-7′,8′-dihydro-6′H-spiro[cyclohexane-1,9′-pyrazino[1′,2′:1,5]pyrrolo[2,3-d]pyrimidin]-6′-one] | 250 nM | 2.6 nM | 230 nM | 550 nM | 130 nM | 27 nM | 350 nM | 370 nM | 110 nM | 170 nM
C[C@H]1CC[C@H](Nc2ncc3cc4n(c3n2)C2(CCCCC2)CN=C4)CC1 [Compound 54, N-((1r,4r)-4-methylcyclohexyl)-8′H-spiro[cyclohexane-1,9′-pyrazino[1′,2′:1,5]pyrrolo[2,3-d]pyrimidin]-2′-amine] | 740 nM | 600 nM | 660 nM | 260 nM | 670 nM | 3600 nM | 420 nM | 2000 nM | 640 nM | 1700 nM

Continued, values first:

IC50 (CDK5/p35) | IC50 (CDK9/Cyclin T) | IC50 (CDK5/p25) | IC50 (CDK2/Cyclin E) | IC50 (CDK4/Cyclin D1) | IC50 (CDK7/Cyclin H) | IC50 (CDK2/Cyclin A) | IC50 (CDK6/Cyclin D3) | IC50 (CDK3/Cyclin E) | IC50 (CDK1/Cyclin B1) | Structure (SMILES)
> 100000 nM | 3400 nM | > 100000 nM | > 100000 nM | 820 nM | > 100000 nM | 65000 nM | 5600 nM | > 100000 nM | > 100000 nM | O=C1NCC2(CCCCC2)n2c1cc1cnc(N[C@H]3C[C@@H](O)CNC3=O)nc12 [Compound 7, 2′-(((3S,5R)-5-hydroxy-2-oxopiperidin-3-yl)amino)-7′,8′-dihydro-6′H-spiro[cyclohexane-1,9′-pyrazino[1′,2′:1,5]pyrrolo[2,3-d]pyrimidin]-6′-one]
10000 nM | 560 nM | 9600 nM | 11000 nM | 270 nM | 14000 nM | 8000 nM | 970 nM | 26000 nM | 8900 nM | O=C1NCC2(CCCCC2)n2c1cc1cnc(N[C@H]3Cc4ccccc4NC3=O)nc12 [Compound 27, (S)-2′-((2-oxo-1,2,3,4-tetrahydroquinolin-3-yl)amino)-7′,8′-dihydro-6′H-spiro[cyclohexane-1,9′-pyrazino[1′,2′:1,5]pyrrolo[2,3-d]pyrimidin]-6′-one]
94000 nM | 10000 nM | 99000 nM | > 100000 nM | 47000 nM | > 100000 nM | 99000 nM | > 100000 nM | > 100000 nM | > 100000 nM | NS(=O)(=O)Cc1cccc(Nc2ncc3cc4n(c3n2)C2(CCCCC2)CNC4=O)c1 [Compound 43, (3-((6′-oxo-7′,8′-dihydro-6′H-spiro[cyclohexane-1,9′-pyrazino[1′,2′:1,5]pyrrolo[2,3-d]pyrimidin]-2′-yl)amino)phenyl)methanesulfonamide]
40000 nM | 88 nM | 43000 nM | 26000 nM | 27000 nM | 61000 nM | 10000 nM | > 100000 nM | 54000 nM | 31000 nM | O=C1NCC2(CCCCC2)n2c1cc1cnc(NC(=O)[C@H]3CNCCO3)nc12 [Compound 35, (R)-N-(6′-oxo-7′,8′-dihydro-6′H-spiro[cyclohexane-1,9′-pyrazino[1′,2′:1,5]pyrrolo[2,3-d]pyrimidin]-2′-yl)morpholine-2-carboxamide]
